Results reported in patent US8957074B2 (Novartis AG, priority 2010, dated 2015).
Like-named read-outs stand apart in the source and are kept apart here.

What was measured:
[1] = target: CDK4/cyclin D1 (Homo sapiens (Human), UniProt P11802); experiment: CDK4/cyclin D1 enzymatic activity assay (TR-FRET, phosphorylation of pRb at Ser780); type: biochemical
Procedure, shortened: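 Phosphorylation at pRb Ser780, detected by TR-FRET, gave IC50s and kinetics. Enzyme: baculovirus/Sf21-expressed human CDK4/cyclin D1. ATP at 3 μM initiated the reaction; EDTA (pH 8.0) stopped it after 60 min at 22° C.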

[2] = test system: phosphorylation of pRb at the Ser780 site in JeKo-1 mantle cell lymphoma cells; experiment: CDK4 cellular assay: ELISA of pRb phosphorylation at Ser780 in JeKo-1 cells; type: cell-based
[3] = target: CDK1/cyclin B (Homo sapiens (Human), UniProt P06493); experiment: CDK1/cyclin B enzymatic activity assay (IMAP-FP); type: biochemical; conditions: 100 nM Tamra Histone-H1 peptide, 20 μM ATP, 120 min at room temperature, read-out: Biochemical CDK1 enzyme IC50
CDK1/cyclin B, sequence (P06493 whole entry, species assumed): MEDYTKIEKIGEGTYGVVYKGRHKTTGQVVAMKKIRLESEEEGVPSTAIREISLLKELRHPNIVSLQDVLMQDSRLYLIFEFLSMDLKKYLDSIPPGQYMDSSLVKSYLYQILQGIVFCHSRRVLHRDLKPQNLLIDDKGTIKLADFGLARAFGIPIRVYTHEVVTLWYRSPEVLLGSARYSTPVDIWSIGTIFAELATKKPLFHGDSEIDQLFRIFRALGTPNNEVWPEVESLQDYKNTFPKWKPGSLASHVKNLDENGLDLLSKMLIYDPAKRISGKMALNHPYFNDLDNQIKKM
CDK1/cyclin B, sequence (P14635 whole entry partner, species assumed): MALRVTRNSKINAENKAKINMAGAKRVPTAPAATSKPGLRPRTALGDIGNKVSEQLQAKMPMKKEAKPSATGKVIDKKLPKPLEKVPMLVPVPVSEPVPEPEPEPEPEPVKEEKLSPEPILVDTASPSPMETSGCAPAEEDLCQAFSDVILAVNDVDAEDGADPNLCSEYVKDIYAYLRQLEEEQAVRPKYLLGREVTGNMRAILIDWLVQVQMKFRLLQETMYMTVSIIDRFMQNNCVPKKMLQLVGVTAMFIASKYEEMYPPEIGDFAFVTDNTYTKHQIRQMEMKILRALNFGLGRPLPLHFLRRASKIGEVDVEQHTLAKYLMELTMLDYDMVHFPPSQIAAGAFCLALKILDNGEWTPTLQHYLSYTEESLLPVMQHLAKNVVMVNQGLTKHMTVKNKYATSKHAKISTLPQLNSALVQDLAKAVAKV
Description: CDK1/Cyclin B Enzymatic Activity Assay
A 384-well microtiter IMAP-FP™ (Molecular Devices Trade Mark Technology) endpoint assay was used for CDK1/cyclin B kinase activity measurements. The same assay was used for IC50 determination of small molecule inhibitors.

[4] = 0.3 nM CDK4/cyclin D1, 150 nM biotin-pRb (773-924), 3 μM ATP, 60 min at 22° C., read-out: Biochemical CDK4 enzyme IC50
[5] = Homo sapiens, JeKo-1, JeKo-1 cells, p-pRb % inhibition adjusted with total pRb levels, read-out: Normalized cellular ppRb inhibition IC50
[6] = Homo sapiens, JeKo-1, JeKo-1 cells, p-pRb Ser780 ELISA, non-normalized, read-out: Cellular ppRb inhibition IC50
[7] = Homo sapiens, JeKo-1 cells, p-pRb % inhibition adjusted with total pRb levels, read-out: Normalized cellular ppRb inhibition IC50
[8] = Homo sapiens, JeKo-1 cells, p-pRb Ser780 ELISA, non-normalized, read-out: Cellular ppRb inhibition IC50

CDK4/cyclin D1, sequence (P11802 whole entry): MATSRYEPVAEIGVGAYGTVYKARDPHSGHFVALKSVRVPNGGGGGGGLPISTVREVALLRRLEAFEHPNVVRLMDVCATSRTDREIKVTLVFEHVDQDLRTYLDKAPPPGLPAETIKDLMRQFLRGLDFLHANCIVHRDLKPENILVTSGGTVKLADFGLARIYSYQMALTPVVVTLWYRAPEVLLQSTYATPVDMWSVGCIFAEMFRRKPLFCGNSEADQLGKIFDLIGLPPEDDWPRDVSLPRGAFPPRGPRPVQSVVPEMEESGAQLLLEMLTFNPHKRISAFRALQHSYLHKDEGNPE
CDK4/cyclin D1, sequence (P24385 whole entry partner): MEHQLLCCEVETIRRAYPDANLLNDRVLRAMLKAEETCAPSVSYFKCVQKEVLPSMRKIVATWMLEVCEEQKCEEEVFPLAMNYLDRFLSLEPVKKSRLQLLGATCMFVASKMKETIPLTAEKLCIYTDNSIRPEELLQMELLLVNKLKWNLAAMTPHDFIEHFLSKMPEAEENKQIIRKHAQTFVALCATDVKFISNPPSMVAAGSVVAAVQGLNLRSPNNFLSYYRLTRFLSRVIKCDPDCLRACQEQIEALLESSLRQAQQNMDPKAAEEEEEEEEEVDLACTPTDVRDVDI

Compound	IC50 [1, 4] [µM]	IC50 ([3]; […] CDK1/cyclin B) [µM]	IC50 [2, 5] [µM]	IC50 [2, 6] [µM]	IC50 [1] [µM]	IC50 ([2]; JeKo-1 cells, p-pRb % inhibition adjusted with total pRb levels, read-out: Normalized cellular ppRb inhibition IC50) [µM]	IC50 ([2]; JeKo-1 cells, p-pRb Ser780 ELISA, non-normalized, read-out: Cellular ppRb inhibition IC50) [µM]	IC50 [2, 7] [µM]	IC50 [2, 8] [µM]	IC50 ([3]; 0.25 nM CDK1/cyclin B) [µM]
CN(C)C(=O)c1cc2cnc(Nc3ccc(C(=O)N4C5CCC4CNC5)cn3)nc2n1C1CCCC1 [Example 22, 7-Cyclopentyl-2-[5-(3,8-diaza-bicyclo[3.2.1]octane-8-carbonyl)-pyridin-2-ylamino]-7H-pyrrolo[2,3-d]pyrimidine-6-carboxylic acid dimethylamide]	–	> 15	0.086 to 0.817	0.086 to 0.513	0.062 to 0.083	–	–	–	–	–
CNC(=O)c1cc2cnc(Nc3ccc(C(=O)N4CC5CCC(C4)N5)cn3)nc2n1C1CCCC1 [Example 23, 7-Cyclopentyl-2-[5-(3,8-diaza-bicyclo[3.2.1]octane-3-carbonyl)-pyridin-2-ylamino]-7H-pyrrolo[2,3-d]pyrimidine-6-carboxylic acid methylamide]	1.63	> 15	6.77	6.77	–	–	–	–	–	–
CNC(=O)c1cc2cnc(Nc3ccc(C(=O)N4C[C@@H]5C[C@H]4CN5)cn3)nc2n1C1CCCC1 [Example 24, 7-Cyclopentyl-2-[5-((S,S)-2,5-diaza-bicyclo[2.2.1]heptane-2-carbonyl)-pyridin-2-ylamino]-7H-pyrrolo[2,3-d]pyrimidine-6-carboxylic acid methylamide]	0.049	> 15	–	–	–	0.272	0.266	–	–	–
CN(C)C(=O)c1cc2cnc(Nc3ccc(C(=O)N4CCC[C@@H]5CCN[C@@H]5C4)cn3)nc2n1C1CCCC1 [Example 25, 7-Cyclopentyl-2-[5-((3aR,8aS)-octahydro-pyrrolo[2,3-c]azepine-7-carbonyl)-pyridin-2-ylamino]-7H-pyrrolo[2,3-d]pyrimidine-6-carboxylic acid dimethylamide]	0.008	> 15	0.022	0.02	–	–	–	–	–	–
CN(C)C(=O)c1cc2cnc(Nc3ccc(C(=O)N4CC5CCC4C5O)cn3)nc2n1C1CCCC1 (centres unmarked) [Example 26]	0.038	> 15	–	–	–	–	–	0.388	0.325	–
CC(=O)N1C2CCC1CN(C(=O)c1ccc(Nc3ncc4cc(C(=O)N(C)C)n(C5CCCC5)c4n3)nc1)C2 [Example 27, 2-(5-(8-acetyl-3,8-diazabicyclo[3.2.1]octane-3-carbonyl)pyridin-2-ylamino)-7-cyclopentyl-N,N-dimethyl-7H-pyrrolo[2,3-d]pyrimidine-6-carboxamide]	0.046	> 15	–	–	–	–	–	0.201	0.194	–
CN(C)C(=O)c1cc2cnc(Nc3ccc(C(=O)N4CC5CCC(C4)N5CCO)cn3)nc2n1C1CCCC1 [Example 28, 7-cyclopentyl-2-(5-(8-(2-hydroxyethyl)-3,8-diazabicyclo[3.2.1]octane-3-carbonyl)pyridin-2-ylamino)-N,N-dimethyl-7H-pyrrolo[2,3-d]pyrimidine-6-carboxamide]	0.022	> 15	0.069	0.063	–	–	–	–	–	–
CC(C)N1C2CCC1CN(C(=O)c1ccc(Nc3ncc4cc(C(=O)N(C)C)n(C5CCCC5)c4n3)nc1)C2 [Example 29, 7-cyclopentyl-2-(5-(8-isopropyl-3,8-diazabicyclo[3.2.1]octane-3-carbonyl)pyridin-2-ylamino)-N,N-dimethyl-7H-pyrrolo[2,3-d]pyrimidine-6-carboxamide]	0.014 to 0.017	> 15	–	–	–	–	–	0.02 to 0.048	0.024 to 0.034	–
CN(C)C(=O)c1cc2cnc(Nc3ccc(C(=O)N4C[C@@H]5C[C@H]4C[C@@H]5O)cn3)nc2n1C1CCCC1 [Example 30, 7-cyclopentyl-2-(5-((1S,4S,5S)-5-hydroxy-2-azabicyclo[2.2.1]heptane-2-carbonyl)pyridin-2-ylamino)-N,N-dimethyl-7H-pyrrolo[2,3-d]pyrimidine-6-carboxamide]	0.088 to 0.114	> 15	–	–	–	–	–	0.344 to 0.582	0.422 to 0.542	–
CN(C)C(=O)c1cc2cnc(Nc3ccc(C(=O)N4CC5CCC(C4)C5N(C)C)cn3)nc2n1C1CCCC1 (centres unmarked) [Example 34, 7-cyclopentyl-2-(5-(8-(dimethylamino)-3-azabicyclo[3.2.1]octane-3-carbonyl)pyridin-2-ylamino)-N,N-dimethyl-7H-pyrrolo[2,3-d]pyrimidine-6-carboxamide]	0.022	> 15	–	–	–	–	–	0.14	0.075	–
CC(CO)N1C2CCC1CN(C(=O)c1ccc(Nc3ncc4cc(C(=O)N(C)C)n(C5CCCC5)c4n3)nc1)C2 (centres unmarked) [Example 35, 7-cyclopentyl-2-(5-(8-(1-hydroxypropan-2-yl)-3,8-diazabicyclo[3.2.1]octane-3-carbonyl)pyridin-2-ylamino)-N,N-dimethyl-7H-pyrrolo[2,3-d]pyrimidine-6-carboxamide]	0.026	> 15	0.197	0.069	–	–	–	–	–	–
CN(C)C(=O)c1cc2cnc(Nc3ccc(C(=O)N4CC5CCC(C4)N5)cn3)nc2n1[C@H]1CC[C@H](C(C)(C)C)CC1 [Example 37, 7-(4-tert-Butyl-cyclohexyl)-2-[5-(3,8-diaza-bicyclo[3.2.1]octane-3-carbonyl)-pyridin-2-ylamino]-7H-pyrrolo[2,3-d]pyrimidine-6-carboxylic acid dimethylamide]	–	> 15	0.288 to 0.438	0.121 to 0.301	0.005 to 0.006	–	–	–	–	–
CN(C)C(=O)c1cc2cnc(Nc3ccc(C(=O)N4CC5CCC(C4)N5)nn3)nc2n1C1CCCC1 [Example 38, 7-Cyclopentyl-2-[6-(3,8-diaza-bicyclo[3.2.1]octane-3-carbonyl)-pyridazin-3-ylamino]-7H-pyrrolo[2,3-d]pyrimidine-6-carboxylic acid dimethylamide]	–	–	0.139 to 0.783	0.075 to 0.259	0.045 to 0.084	–	–	–	–	> 15
CN(C)C(=O)c1cc2cnc(Nc3ccc(C(=O)N4[C@@H]5CNC[C@H]4COC5)cn3)nc2n1C1CCCC1 [Example 40, 2-(5-((1R,5S)-3-oxa-7,9-diazabicyclo[3.3.1]nonane-9-carbonyl)pyridin-2-ylamino)-7-cyclopentyl-N,N-dimethyl-7H-pyrrolo[2,3-d]pyrimidine-6-carboxamide]	0.036 to 0.052	> 15	–	–	–	–	–	0.051 to 0.222	0.04 to 0.099	–

Further lines, with some results ahead:

IC50 [1, 4] [µM]	IC50 ([3]; […] CDK1/cyclin B) [µM]	Compound	IC50 [2, 5] [µM]	IC50 [2, 6] [µM]	IC50 [1] [µM]	IC50 ([2]; JeKo-1 cells, p-pRb % inhibition adjusted with total pRb levels, read-out: Normalized cellular ppRb inhibition IC50) [µM]	IC50 ([2]; JeKo-1 cells, p-pRb Ser780 ELISA, non-normalized, read-out: Cellular ppRb inhibition IC50) [µM]	IC50 [2, 7] [µM]	IC50 [2, 8] [µM]	IC50 ([3]; 0.25 nM CDK1/cyclin B) [µM]
0.047	> 15	CN(C)C(=O)c1cc2cnc(Nc3ccc(C(=O)N4CCN5CCC[C@@H]5C4)cn3)nc2n1C1CCCC1 [Example 21, 7-Cyclopentyl-2-[5-((R)-hexahydro-pyrrolo[1,2-a]pyrazine-2-carbonyl)-pyridin-2-ylamino]-7H-pyrrolo[2,3-d]pyrimidine-6-carboxylic acid dimethylamide]	0.401	0.187	–	–	–	–	–	–
0.069 to 0.081	> 15	CN(C)C(=O)c1cc2cnc(Nc3ccc(C(=O)N4C[C@@H]5C[C@H]4C[C@H]5O)cn3)nc2n1C1CCCC1 [Example 31, 7-cyclopentyl-2-(5-((1S,4S,5R)-5-hydroxy-2-azabicyclo[2.2.1]heptane-2-carbonyl)pyridin-2-ylamino)-N,N-dimethyl-7H-pyrrolo[2,3-d]pyrimidine-6-carboxamide]	–	–	–	–	–	0.497 to 0.591	0.252 to 0.352	–
0.015 to 0.021	> 15	CN(C)C(=O)c1cc2cnc(Nc3ccc(C(=O)N4CC5CNCC5C4)cn3)nc2n1C1CCCC1 (centres unmarked) [Example 32, 7-cyclopentyl-N,N-dimethyl-2-(5-(octahydropyrrolo[3,4-c]pyrrole-2-carbonyl)pyridin-2-ylamino)-7H-pyrrolo[2,3-d]pyrimidine-6-carboxamide]	0.212	0.131	–	–	–	–	–	–
0.094 to 0.144	> 15	CN(C)C(=O)c1cc2cnc(Nc3ccc(C(=O)N4CC5CCC(C4)C5O)cn3)nc2n1C1CCCC1 [Example 33, 7-cyclopentyl-2-(5-((1R,5S,8r)-8-hydroxy-3-azabicyclo[3.2.1]octane-3-carbonyl)pyridin-2-ylamino)-N,N-dimethyl-7H-pyrrolo[2,3-d]pyrimidine-6-carboxamide]	–	–	–	–	–	0.43 to 1.3	0.377 to 0.919	–
0.077	> 15	CN1CC2(C)CN(C(=O)c3ccc(Nc4ncc5cc(C(=O)N(C)C)n(C6CCCC6)c5n4)nc3)CC(C)(C1)C2O (centres unmarked) [Example 39, 7-Cyclopentyl-2-(5-(9-hydroxy-1,5,7-trimethyl-3,7-diazabicyclo[3.3.1]nonane-3-carbonyl)pyridin-2-ylamino)-N,N-dimethyl-7H-pyrrolo[2,3-d]pyrimidine-6-carboxamide]	–	–	–	–	–	0.136	0.079	–
0.015 to 0.017	> 15	CN(C)C(=O)c1cc2cnc(Nc3ccc(C(=O)N4CC5(CNC5)C4)cn3)nc2n1C1CCCC1 [Example 41, 2-(5-(2,6-diazaspiro[3.3]heptane-2-carbonyl)pyridin-2-ylamino)-7-cyclopentyl-N,N-dimethyl-7H-pyrrolo[2,3-d]pyrimidine-6-carboxamide]	–	–	–	–	–	0.132 to 0.415	0.112 to 0.228	–
